{"source": "patent US20210069145A1", "about": "“COMPOSITIONS AND METHODS FOR REDUCING A FATTY ACID DESATURATION INDEX IN A SUBJECT IN NEED THEREOF” (Amarin Pharmaceuticals Ireland Limited, priority 2013, published 2021)", "key": {"[1]": {"tested_on": "Lipoprotein Particle Sizes", "assay": "Lipoprotein particle sizes, 12-week double-blind placebo-controlled study of >96% E-EPA in statin-treated patients", "type": "in vivo, human", "settings": "12 weeks; for LDL particle size, % Δ / HDL particle size, % Δ / VLDL particle size, % Δ: median change from baseline; for LDL particle size, End / HDL particle size, End / VLDL particle size, End: median", "description": "(§1) A multi-center, placebo-controlled, randomized, double-blind, 12-week study was performed to evaluate the efficacy and safety of >96% E-EPA in patients with fasting triglyceride levels ≥200 mg/dl and <500 mg/dl despite statin therapy (the mean of two qualifying entry values needed to be ≥185 mg/dl and at least one of the values needed to be ≥200 mg/dl). The primary objective of the study was to determine the efficacy of >96% E-EPA 2 g daily and 4 g daily, compared to placebo, in lowering fasting TG levels in patients with high risk for cardiovascular disease and with fasting TG levels ≥200 mg/dl and <500 mg/dl, despite treatment to LDL-C goal on statin therapy.\n(§2) The population for this study was men and women >18 years of age with a body mass index ≤45 kg/m^2 with fasting TG levels greater than or equal to 200 mg/dl and less than 500 mg/dl and on a stable does of statin therapy (with or without ezetimibe). The statin was atorvostatin, rosuvastatin or simvastatin. The dose of statin must have been stable for ≥4 weeks prior to the LDL-C/TG baseline qualifying measurement for randomization. The statin dose was optimized such that the patients are at their LDL-C goal at the LDL-C/TG baseline qualifying measurements. The same statin at the same dose was continued until the study ended.\nApproximately 702 patients were randomized at approximately 80 centers in the U.S. The study was a 18- to 20-week, Phase 3, multi-center study consisting of 2 study periods: (1) A 6- to 8-week screening period that included a diet and lifestyle stabilization, a non-statin lipid-altering treatment washout, and an LDL-C and TG qualifying period and (2) A 12-week, double-blind, randomized, placebo-controlled treatment period.\nAfter confirmation of qualifying fasting LDL-C and TG values, eligible patients entered a 12-week, randomized, double-blind treatment period. At Visit 4 (Week 0), patients were randomly assigned to 1 of the following treatment groups: • >96% E-EPA 2 g daily, • >96% E-EPA 4 g daily, or • Placebo.\nDuring the double-blind treatment period, patients were to take 2 capsules (>96% E-EPA or matching placebo) in the morning and 2 capsules in the evening for a total of 4 capsules per day. • Patients in the >96% E-EPA 2 g/day treatment group received 1>96% E-EPA 1 g capsule and 1 matching placebo capsule in the morning and in the evening. • Patients in the >96% E-EPA 4 g/day treatment group received 2>96% E-EPA 1 g capsules in the morning and evening.\n(§3) The primary efficacy variable for the double-blind treatment period was percent change in TG from baseline to Week 12 endpoint. The secondary efficacy variables for the double-blind treatment period included the following: • Percent changes in total cholesterol (TC), high-density lipoprotein cholesterol (HDL-C), LDL-C, calculated non-HDL-C, and very low-density lipoprotein cholesterol (VLDL-C) from baseline to Week 12 endpoint; • Percent change in very low-density lipoprotein TG from baseline to Week 12; • Percent changes in apolipoprotein A-I (apo A-I), apolipoprotein B (apo B), and apo A-I/apo B ratio from baseline to Week 12; • Percent changes in lipoprotein(a) from baseline to Week 12; • Percent changes in LDL particle number and size, measured by nuclear magnetic resonance, from baseline to Week 12; • Percent change in remnant-like particle cholesterol from baseline to Week 12; • Percent change in oxidized LDL from baseline to Week 12; • Changes in FPG and HbA1c from baseline to Week 12; • Change in insulin resistance, as assessed by the homeostasis model index insulin resistance, from baseline to Week 12; • Percent change in lipoprotein associated phospholipase A2 (Lp-PLA2) from baseline to Week 12; • Change in intracellular adhesion molecule-1 from baseline to Week 12; • Change in interleukin-2 from baseline to Week 12; • Change in plasminogen activator inhibitor-1 from baseline to Week 12. […]"}, "[2]": {"tested_on": "fatty acid desaturation index (FADI), plasma", "assay": "Fatty acid desaturation index (FADI) ratios in plasma, 12-week placebo-controlled study", "type": "in vivo, human", "settings": "4 g/day, 12 weeks, placebo-adjusted, from baseline", "description": "as §1\nas §2, with “ended. […]” for “ended.”\nas §3"}, "[3]": {"settings": "4 g/day, Hodges-Lehmann median, listed as E-EPA"}, "[4]": {"settings": "listed as Ethyl Eicosapentaenoate"}}, "data": [{"smiles": "CC/C=C\\C/C=C\\C/C=C\\C/C=C\\C/C=C\\CCCC(=O)OCC", "note": "[ethyl eicosapentaenoate, all-cis eicosa-5,8,11,14,17-pentaenoic acid ethyl ester]", "values": [{"measurement": "HDL particle size, Placebo-Adjusted Median Change from Baseline 2 g/d, %", "setting": "[1]; 2 g/day, Hodges-Lehmann median", "result": 0.0, "unit": "%"}, {"measurement": "LDL particle size, Placebo-Adjusted Median Change from Baseline 2 g/d, %", "setting": "[1]; 2 g/day, Hodges-Lehmann median", "result": "+0.5%"}, {"measurement": "VLDL particle size, Placebo-Adjusted Median Change from Baseline 2 g/d, %", "setting": "[1]; 2 g/day, Hodges-Lehmann median", "result": "−4.8", "unit": "%"}, {"measurement": "LDL particle size, % Δ", "setting": "[1]; 2 g/day, n = 221", "result": "+0.5%"}, {"measurement": "HDL particle size, % Δ", "setting": "[1]; 2 g/day, n = 222", "result": 0.0, "unit": "%"}, {"measurement": "VLDL particle size, % Δ", "setting": "[1]; 2 g/day, n = 222", "result": "−5.0", "unit": "%"}, {"measurement": "LDL particle size, End", "setting": "[1]; 2 g/day, n = 221", "result": 20.0, "unit": "nm"}, {"measurement": "HDL particle size, End", "setting": "[1]; 2 g/day, n = 222", "result": 8.6, "unit": "nm"}, {"measurement": "VLDL particle size, End", "setting": "[1]; 2 g/day, n = 222", "result": 53.2, "unit": "nm"}, {"measurement": "HDL particle size, Placebo-Adjusted Median Change from Baseline 4 g/d, %", "setting": "[1]; 4 g/day, Hodges-Lehmann median", "result": "significantly reduced"}, {"measurement": "LDL particle size, Placebo-Adjusted Median Change from Baseline 4 g/d, %", "setting": "[1]; 4 g/day, Hodges-Lehmann median", "result": "modest but significant increase"}, {"measurement": "VLDL particle size, Placebo-Adjusted Median Change from Baseline 4 g/d, %", "setting": "[1]; 4 g/day, Hodges-Lehmann median", "result": "significantly reduced"}, {"measurement": "HDL particle size, Placebo-Adjusted Median Change from Baseline 4 g/d, %", "setting": "[1]; [3]", "result": "−1.2", "unit": "%"}, {"measurement": "LDL particle size, Placebo-Adjusted Median Change from Baseline 4 g/d, %", "setting": "[1]; [3]", "result": "+0.5%"}, {"measurement": "VLDL particle size, Placebo-Adjusted Median Change from Baseline 4 g/d, %", "setting": "[1]; [3]", "result": "−7.7", "unit": "%"}, {"measurement": "LDL particle size, % Δ", "setting": "[1]; 4 g/day, n = 215", "result": "+0.5%"}, {"measurement": "HDL particle size, % Δ", "setting": "[1]; 4 g/day, n = 216", "result": "−1.1", "unit": "%"}, {"measurement": "VLDL particle size, % Δ", "setting": "[1]; 4 g/day, n = 216", "result": "−8.1", "unit": "%"}, {"measurement": "LDL particle size, End", "setting": "[1]; 4 g/day, n = 215", "result": 20.0, "unit": "nm"}, {"measurement": "HDL particle size, End", "setting": "[1]; 4 g/day, n = 216", "result": 8.6, "unit": "nm"}, {"measurement": "VLDL particle size, End", "setting": "[1]; 4 g/day, n = 216", "result": 51.2, "unit": "nm"}, {"measurement": "FADI-16 (Palmitoleic acid/Palmitic acid, C16:1/C16:0) % Change, Plasma", "setting": "[2]", "result": "significantly reduced"}, {"measurement": "FADI-18 (Oleic acid/Stearic Acid, C18:1/C18:0) % Change, Plasma", "setting": "[2]", "result": "significantly reduced"}, {"measurement": "FADI-16 (Palmitoleic acid/Palmitic acid, C16:1/C16:0) % Change, Plasma", "setting": "[2]; [4]", "result": "−6.8", "unit": "%"}, {"measurement": "FADI-18 (Oleic acid/Stearic Acid, C18:1/C18:0) % Change, Plasma", "setting": "[2]; [4]", "result": "−9.8", "unit": "%"}]}]}
